# From publication PMC5309245, “Discovery and Characterization of Diazenylaryl Sulfonic Acids as Inhibitors of Viral and Bacterial Neuraminidases” (Frontiers in Microbiology, 2017)
# Several values for one entry are separate records, joined by “and”; a condition that tells them apart may be missing. Equal values may be shown once.
# How the values were obtained:
# [1] = biological target: IAV HK/68 NA (whole virus) (Influenza A virus, UniProt Q91MA2); assay: biochemical; parameters: species or system influenza A virus A/Hong Kong/68 (H3N2); conditions: NA inhibition using FL assay IC50, IAV HK/68
# [2] = biological target: T1, S. pneumoniae DSM20566 NA (NanA) (Streptococcus pneumoniae, UniProt P62575); assay: FL NA inhibition assay, S. pneumoniae DSM20566; format: biochemical; conditions: MUNANA substrate; read-out: NA inhibition using FL assay IC50, S. p. DSM20566
# T1 construct: host or cells: either rNanA from E. coli BL21(DE3) or total precipitated protein of S. pneumoniae DSM20566
# IAV 5258/09 NA = assay: Hemagglutination (HA)-based NA inhibition assay, IAV 5258/09; format: cell-based, influenza A virus A/Jena/5258/2009 (H1N1); conditions: human erythrocytes
# [3] = biological target: T2, S. pneumoniae DSM20566 NA (Streptococcus pneumoniae, UniProt P62575); assay: HA-based NA inhibition assay, S. pneumoniae DSM20566; format: cell-based; conditions: human erythrocytes
# T2 construct: host or cells: either rNanA from E. coli BL21(DE3) or total precipitated protein of S. pneumoniae DSM20566
# T2 sequence (P62575 54-1035): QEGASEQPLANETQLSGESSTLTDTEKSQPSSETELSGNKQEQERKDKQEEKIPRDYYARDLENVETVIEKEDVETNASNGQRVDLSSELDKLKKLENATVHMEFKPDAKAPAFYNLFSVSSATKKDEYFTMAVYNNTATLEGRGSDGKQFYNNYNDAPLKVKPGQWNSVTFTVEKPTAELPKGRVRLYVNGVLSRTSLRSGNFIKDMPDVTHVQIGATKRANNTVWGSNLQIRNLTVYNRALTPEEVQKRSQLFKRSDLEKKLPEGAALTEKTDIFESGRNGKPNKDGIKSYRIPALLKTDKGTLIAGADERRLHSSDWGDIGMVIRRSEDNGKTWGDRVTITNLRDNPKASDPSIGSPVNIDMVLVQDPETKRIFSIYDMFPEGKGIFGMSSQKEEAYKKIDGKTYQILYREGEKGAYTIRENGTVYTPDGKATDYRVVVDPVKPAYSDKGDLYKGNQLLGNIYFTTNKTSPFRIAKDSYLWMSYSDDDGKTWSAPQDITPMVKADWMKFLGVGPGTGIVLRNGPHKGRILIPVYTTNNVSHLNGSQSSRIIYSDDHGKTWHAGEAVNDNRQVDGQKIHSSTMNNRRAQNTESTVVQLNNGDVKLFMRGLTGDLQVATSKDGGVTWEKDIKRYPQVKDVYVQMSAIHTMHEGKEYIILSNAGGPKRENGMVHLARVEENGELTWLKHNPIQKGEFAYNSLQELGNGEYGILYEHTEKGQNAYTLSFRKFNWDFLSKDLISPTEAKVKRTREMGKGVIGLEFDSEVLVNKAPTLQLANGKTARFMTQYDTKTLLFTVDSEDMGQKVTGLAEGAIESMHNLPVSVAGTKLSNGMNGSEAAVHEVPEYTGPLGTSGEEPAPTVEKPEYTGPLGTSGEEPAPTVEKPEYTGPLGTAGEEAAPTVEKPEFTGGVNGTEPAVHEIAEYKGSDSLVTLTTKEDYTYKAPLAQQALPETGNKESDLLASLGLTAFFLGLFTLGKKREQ
# [4] = biological target: S. pneumoniae recombinant NanA 8919_LC (Streptococcus pneumoniae, UniProt P62575); assay: biochemical; format: biochemical, Streptococcus pneumoniae CF8919
# Sequence of S. pneumoniae recombinant NanA 8919_LC (P62575 116-833): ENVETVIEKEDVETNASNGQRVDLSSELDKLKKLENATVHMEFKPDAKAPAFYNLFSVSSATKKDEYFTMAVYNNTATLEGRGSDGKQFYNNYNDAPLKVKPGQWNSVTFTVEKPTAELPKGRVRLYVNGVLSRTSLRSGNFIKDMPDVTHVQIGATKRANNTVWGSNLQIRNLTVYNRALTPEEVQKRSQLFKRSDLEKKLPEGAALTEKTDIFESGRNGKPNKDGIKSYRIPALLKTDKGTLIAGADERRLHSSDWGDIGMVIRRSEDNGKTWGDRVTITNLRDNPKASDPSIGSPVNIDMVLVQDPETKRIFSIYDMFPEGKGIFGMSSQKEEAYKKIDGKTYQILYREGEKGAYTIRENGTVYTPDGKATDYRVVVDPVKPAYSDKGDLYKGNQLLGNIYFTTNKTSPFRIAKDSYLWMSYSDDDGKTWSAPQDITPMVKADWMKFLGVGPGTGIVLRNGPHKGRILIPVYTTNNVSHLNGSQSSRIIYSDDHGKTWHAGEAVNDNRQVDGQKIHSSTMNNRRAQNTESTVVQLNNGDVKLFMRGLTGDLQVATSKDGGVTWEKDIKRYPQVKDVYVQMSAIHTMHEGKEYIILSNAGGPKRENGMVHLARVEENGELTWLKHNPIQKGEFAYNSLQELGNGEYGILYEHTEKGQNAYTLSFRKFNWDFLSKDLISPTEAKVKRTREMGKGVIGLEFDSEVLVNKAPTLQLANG
# [5] = biological target: S. pneumoniae recombinant NanA 20566_LC (Streptococcus pneumoniae, UniProt P62575); assay: biochemical; parameters: species or system Streptococcus pneumoniae DSM20566
# Sequence of S. pneumoniae recombinant NanA 20566_LC (P62575 116-833): as above
# [6] = biological target: S. pneumoniae recombinant NanA 20566_CC (Streptococcus pneumoniae, UniProt P62575); assay: biochemical; parameters: species or system Streptococcus pneumoniae DSM20566
# Sequence of S. pneumoniae recombinant NanA 20566_CC (P62575 311-833): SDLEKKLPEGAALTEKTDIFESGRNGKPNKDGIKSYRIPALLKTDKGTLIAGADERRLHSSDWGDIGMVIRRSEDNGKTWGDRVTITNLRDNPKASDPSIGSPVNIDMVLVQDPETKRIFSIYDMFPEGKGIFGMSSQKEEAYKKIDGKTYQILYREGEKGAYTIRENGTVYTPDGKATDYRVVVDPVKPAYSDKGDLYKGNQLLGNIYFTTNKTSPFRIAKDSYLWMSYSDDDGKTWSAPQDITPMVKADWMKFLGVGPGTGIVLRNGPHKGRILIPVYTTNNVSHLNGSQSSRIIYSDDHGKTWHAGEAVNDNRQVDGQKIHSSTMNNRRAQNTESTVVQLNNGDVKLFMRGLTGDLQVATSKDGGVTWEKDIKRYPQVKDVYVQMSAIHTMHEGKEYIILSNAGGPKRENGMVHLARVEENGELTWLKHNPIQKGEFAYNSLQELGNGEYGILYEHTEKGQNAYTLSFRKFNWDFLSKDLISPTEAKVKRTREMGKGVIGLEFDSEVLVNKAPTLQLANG
# [7] = biological target: S. pneumoniae recombinant NanA 9400_LC (Streptococcus pneumoniae, UniProt P62575); assay: biochemical; parameters: species or system Streptococcus pneumoniae CJ9400
# Sequence of S. pneumoniae recombinant NanA 9400_LC (P62575 116-833): as the sequence (P62575 116-833) above
# [8] = biological target: S. pneumoniae recombinant NanA 9400_CC (Streptococcus pneumoniae, UniProt P62575); assay: biochemical; format: biochemical, Streptococcus pneumoniae CJ9400
# Sequence of S. pneumoniae recombinant NanA 9400_CC (P62575 311-833): as the sequence (P62575 311-833) above
# [9] = biological target: Influenza virus A/WSN/33 NA-wt (whole virus) (Influenza A virus, UniProt P03470); format: biochemical, influenza A virus A/WSN/1933 (H1N1)
# Sequence of Influenza virus A/WSN/33 NA-wt (whole virus) (P03470 whole entry, looked up): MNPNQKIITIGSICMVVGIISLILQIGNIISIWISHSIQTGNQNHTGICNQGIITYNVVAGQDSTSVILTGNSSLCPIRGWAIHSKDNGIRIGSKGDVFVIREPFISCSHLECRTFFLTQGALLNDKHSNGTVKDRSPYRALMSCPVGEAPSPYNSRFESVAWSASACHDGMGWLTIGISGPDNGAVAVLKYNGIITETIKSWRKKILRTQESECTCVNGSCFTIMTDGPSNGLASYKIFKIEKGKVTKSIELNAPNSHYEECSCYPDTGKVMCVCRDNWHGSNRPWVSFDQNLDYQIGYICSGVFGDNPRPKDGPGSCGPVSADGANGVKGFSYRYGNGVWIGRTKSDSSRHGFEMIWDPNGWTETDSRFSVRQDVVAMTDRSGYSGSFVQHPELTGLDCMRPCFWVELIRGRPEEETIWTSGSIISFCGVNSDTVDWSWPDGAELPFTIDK
# [10] = tested on: influenza A virus 8178/09; assay: microbe, parasite or virus in culture; format: cell-based, influenza A virus A/Jena/8178/2009 (H1N1); conditions: Influenza A virus, MDCK, 48 h, read-out: 50% inhibitory concentration, influenza A virus 8178/09
# influenza A virus WSN/33 = assay: microbe, parasite or virus in culture; format: cell-based, influenza A virus A/WSN/1933 (H1N1); conditions: Influenza A virus, WSN, MDCK, 48 h, read-out: 50% inhibitory concentration, influenza A virus WSN/33
# influenza A virus HK/68 = assay: microbe, parasite or virus in culture; format: cell-based, influenza A virus A/Hong Kong/68 (H3N2); conditions: Influenza A virus, MDCK, 48 h, read-out: 50% inhibitory concentration, influenza A virus HK/68
# [11] = tested on: 8178/09-, WSN/33-, or HK/68-induced cytopathic effect; assay: CPE inhibition assay (viruses not separated); format: cell-based; conditions: Influenza A virus, MDCK, read-out: IC50 of inhibition of the 8178/09-, WSN/33-, or HK/68-induced cytopathic effect
# S. pneumoniae DSM20566 [12] = assay: Microtiter broth microdilution assay, planktonic growth; format: cell-based, Streptococcus pneumoniae DSM20566; conditions: Streptococcus pneumoniae, DSM20566; 18 h, maximum 50 μM; read-out: 50% inhibitory concentration, S. pneumoniae DSM20566 planktonic growth
# [13] = tested on: S. pneumoniae DSM20566 biofilm; assay: Biofilm inhibition assay; format: cell-based, Streptococcus pneumoniae DSM20566; conditions: Streptococcus pneumoniae, DSM20566; 50 μM; read-out: Inhibition of biofilm formation at the maximum tested concentration
# S. pneumoniae DSM20566 [14] = assay: Bactericidal or bacteriostatic activity (subculture on blood agar); format: cell-based, Streptococcus pneumoniae DSM20566; conditions: 50 µM
# [15] = tested on: Influenza virus A/Jena/8178/09; format: cell-based, influenza A virus A/Jena/8178/2009 (H1N1)
# WSN/33 = format: cell-based, influenza A virus A/WSN/1933 (H1N1)
# human erythrocytes [16] = format: cell-based; conditions: human erythrocytes, 2 h at 4°C
# Description: (§1) Viral (whole virus) and bacterial NA activity as well as their inhibition were measured by using a fluorescence (FL) assay with the substrate 2′-(4-methylumbelliferyl)-α-D-N-acetylneuraminic acid sodium salt hydrate (MUNANA, 100 μM; Sigma-Aldrich GmbH, Taufkirchen, Germany), and/or a hemagglutination (HA)-based NA inhibition assay (HA assay) with human erythrocytes (Institute of Transfusion Medicine, University Hospital Jena, Jena, Germany), both assays as published recently (Richter et al., [2015]). Recombinant NanA (rNanA) and total precipitated bacterial protein of S. pneumoniae DSM20566 were used in FL and HA assays. Interference of the compounds with the FL signal (self-fluorescence and quenching) was excluded as described previously (Richter et al., [2015]). […] Each compound was tested at least three times in both NA inhibition assays.
# Supplementary Table 1. Assay interference phenomena of test compounds in the HA-based […]
# sample concentrations [µM] in viral HA-assay bacterial HA-assay […]
# hem- prevention of erythrocyte hem- erythrocyte agglutinationa virus-induced lysisc agglutinationd lysise […]
# cTest compounds lysed the human erythrocytes (2 h at 4°C). […]
# human erythrocytes [17] = format: cell-based; conditions: human erythrocytes, 4 h at 37°C and 12 h at 4°C
# Description: as §1
# Supplementary Table 1. […]
# eTest compounds lysed the human erythrocytes (4 h at 37°C and 12 h at 4°C).
# in vitro = conditions: dog
smiles,measurement,setting,value
"Cc1cc(N=Nc2ccc(N=Nc3c(O)c(S(=O)(=O)O)cc4cc(S(=O)(=O)O)ccc34)cc2C)ccc1N=Nc1ccc2cc(S(=O)(=O)O)cc(S(=O)(=O)O)c2c1 [Compound 1, 7-[2-[4-[2-[4-[2-(2-hydroxy-3,6-disulfo-1-naphthalenyl)diazenyl]-2-methylphenyl]diazenyl]-2-methylphenyl]diazenyl]-1,3-naphthalenedisulfonic acid]",IC50,[1],1.42 ± 0.44 µM
same,IC50,[2],0.32 ± 0.05 µM
same,"NA inhibition using HA assay MIC, IAV 5258/09",IAV 5258/09 NA,10.00 ± 0.00 µM
same,"NA inhibition using HA assay MIC, S. p. DSM20566",[3],7.26 ± 3.75 µM
same,Binding mechanism,[4],Mixed
same,Ki,[4],0.11 ± 0.02 µM
same,"alpha (fit printed in Lineweaver-Burk plot, Supplementary Figure 2A)",[4],"7,8"
same,Binding mechanism,[5],Mixed
same,"alpha (fit in Lineweaver-Burk plot, Supplementary Figure 2B)",[5],"12,9"
same,Ki,[5]; Ki,0.12 ± 0.01 µM
same,Ki,"[5]; Ki (fit in Lineweaver-Burk plot, Supplementary Figure 2B)",0.103 µM
same,Binding mechanism,[6],Mixed
same,"alpha (fit in Lineweaver-Burk plot, Supplementary Figure 2C)",[6],"5,5"
same,Ki,[6]; Ki,0.16 ± 0.03 µM
same,Ki,"[6]; Ki (fit in Lineweaver-Burk plot, Supplementary Figure 2C)",0.143 µM
same,Binding mechanism,[7],Mixed
same,Ki,[7]; Ki,0.19 ± 0.02 µM
same,Ki,"[7]; Ki (fit printed in Lineweaver-Burk plot, Supplementary Figure 2D)",0.172 µM
same,Binding mechanism,[8],Mixed
same,Ki,[8],0.16 ± 0.01 µM
same,"alpha (fit printed in Lineweaver-Burk plot, Supplementary Figure 2E)",[8],"3,7"
same,Binding mechanism,[9],Mixed
same,binding kinetics (effect of pre-incubation on Ki),[9],fast-binding inhibitor
same,IC50,[10],20.4 ± 2.51 µM
same,IC50,influenza A virus WSN/33,7.17 ± 0.96 µM
same,IC50,influenza A virus HK/68,18.5 ± 9.59 µM
same,IC50,[11],< 15 µM
same,IC50,S. pneumoniae DSM20566 [12],28.8 ± 13.1 µM
same,inhibition at 50 µM,[13],49%
same,Activity (bactericidal or bacteriostatic),S. pneumoniae DSM20566 [14],bacteriostatic
same,cfu per agar plate,"S. pneumoniae DSM20566 [14]; 18 h, then subculture",> 150
same,Mean reduction in plaque numbers ± SD,[15],96.10 ± 3.45% and 96.46 ± 1.08% and 97.76 ± 0.65% and 94.12 ± 3.06%
same,"Mean ± SD of both experiments, reduction in plaque numbers",[15],95.29 ± 1.65% and 96.93 ± 1.17%
same,"Decrease of plaque formation, compound during the whole replication cycle",WSN/33,up to 100%
same,Plaque numbers after pretreatment of MDCK cells,WSN/33,not affected
same,Reduction of plaque number after pretreatment of the cell-free virus,WSN/33,~ 95%
same,"Reduction of plaque number, compound added during virus adsorption",WSN/33,50%
same,"sample concentrations provoking erythrocyte lysis, viral HA-assay",human erythrocytes [16],no
same,"sample concentrations provoking erythrocyte lysis, bacterial HA-assay",human erythrocytes [17],no
same,CC50,in vitro,> 100 µM
